According to US10266565B2, “Peptide mimetic ligands of polo-like kinase 1 polo box domain and methods of use” (The United States of America, as represented by the …, priority 2011, dated 2019):
“Also recorded” adds a separate entry of the source. Blank lines part the entries; values can stand above or below the molecule they belong to. *1 amine or outer side, *2 acyl side, *3 side chain or, on linkers, in order; H or OH if unused. Where a SMILES comes first, the peptide text is derived from it. Where no end group is shown, it is not given here. [ ]: non-standard residue; d: D form. Abu(3R-Me,4-PO3H2) = C[C@@H](CP(=O)(O)O)[C@H](N)C(=O)O; X1 = C[C@H]([C@H](N[*:1])C(=O)[*:2])C(F)(F)P(=O)(O)O; pT = C[C@@H](OP(=O)(O)O)[C@H](N)C(=O)O

Experiments:
Plk1 PBD = Plk1 PBD (Homo sapiens, UniProt P53350); experiment: ELISA-based PBD-binding inhibition assay (immobilized biotinylated p-T78 peptide, HA-EGFP-Plk1 lysates); details: relative to the comparator named in the sentence
Sequence of Plk1 PBD (P53350 whole entry): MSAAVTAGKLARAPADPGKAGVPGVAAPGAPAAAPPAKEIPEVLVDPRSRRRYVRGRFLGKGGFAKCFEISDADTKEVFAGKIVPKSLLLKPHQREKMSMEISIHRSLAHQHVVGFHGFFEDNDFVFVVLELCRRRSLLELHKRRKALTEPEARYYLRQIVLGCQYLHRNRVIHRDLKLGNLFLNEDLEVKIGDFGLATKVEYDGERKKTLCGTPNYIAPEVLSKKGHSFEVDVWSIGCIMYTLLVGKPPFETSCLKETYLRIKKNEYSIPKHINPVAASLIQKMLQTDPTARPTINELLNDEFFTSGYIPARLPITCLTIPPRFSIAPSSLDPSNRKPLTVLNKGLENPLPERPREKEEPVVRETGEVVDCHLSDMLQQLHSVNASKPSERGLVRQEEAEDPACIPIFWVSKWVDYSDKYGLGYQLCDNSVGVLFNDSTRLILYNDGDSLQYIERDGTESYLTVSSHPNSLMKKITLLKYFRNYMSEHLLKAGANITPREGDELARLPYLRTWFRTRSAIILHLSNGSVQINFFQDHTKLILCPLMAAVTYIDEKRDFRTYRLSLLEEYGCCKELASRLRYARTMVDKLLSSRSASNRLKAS
Protocol: The wells were washed once with PBS plus 0.05% Tween20 (PBST), and incubated with 200 μl of PBS plus 1% BSA (blocking buffer) for 1 h to prevent non-specific binding. […] Following the incubation, ELISA plates were washed 4 times with PBST. To detect bound HA-EGFP-Plk1, the plates were probed for 2 h with 100 μl/well of anti-HA antibody at a concentration of 0.5 μg/ml in blocking buffer and then washed 5 times. The plates were further probed for 1 h with 100 μl/well of HRP-conjugated secondary antibody (GE Healthcare, Piscataway, N.J.) at a 1:1,000 dilution in blocking buffer. The plates were washed 5 times with PBST and incubated with 100 μl/well of 3,3′,5,5′-tetramethylbenzidine (TMB) solution (Sigma, St. Louis, Mo.) as a substrate until a desired absorbance was reached. […] The optical density (O.D.) was measured at 450 nm by using an ELISA plate reader (Molecular Devices, Sunnyvale, Calif.).
A biotinylated p-T78 peptide was first diluted with IX coating solution (KPL Inc., Gaithersburg, Md.) to a final concentration of 0.3 μM, and then 100 μL of the resulting solution was immobilized onto a 96-well streptavidin-coated plate (Nalgene Nunc, Rochester, N.Y.). […] The plates were washed 5 times with PBST and incubated with 100 μL/well of 3,3′,5,5′-tetramethylbenzidine (TMB) substrate solution (Sigma, St. Louis, Mo.) until a desired absorbance was achieved. […]

Plk1 = biological target: T1, Plk1 (Homo sapiens, UniProt P53350); experiment: Peptide pull-down assay with bead-immobilized peptides, Plk1; format: binding; details: mitotic cell lysates
T1 construct: we used total lysates prepared from mitotic HeLa cells; endogenous in cells; host or cells: mitotic (nocodazole-arrested) HeLa cells
T1 sequence (P53350 2-603): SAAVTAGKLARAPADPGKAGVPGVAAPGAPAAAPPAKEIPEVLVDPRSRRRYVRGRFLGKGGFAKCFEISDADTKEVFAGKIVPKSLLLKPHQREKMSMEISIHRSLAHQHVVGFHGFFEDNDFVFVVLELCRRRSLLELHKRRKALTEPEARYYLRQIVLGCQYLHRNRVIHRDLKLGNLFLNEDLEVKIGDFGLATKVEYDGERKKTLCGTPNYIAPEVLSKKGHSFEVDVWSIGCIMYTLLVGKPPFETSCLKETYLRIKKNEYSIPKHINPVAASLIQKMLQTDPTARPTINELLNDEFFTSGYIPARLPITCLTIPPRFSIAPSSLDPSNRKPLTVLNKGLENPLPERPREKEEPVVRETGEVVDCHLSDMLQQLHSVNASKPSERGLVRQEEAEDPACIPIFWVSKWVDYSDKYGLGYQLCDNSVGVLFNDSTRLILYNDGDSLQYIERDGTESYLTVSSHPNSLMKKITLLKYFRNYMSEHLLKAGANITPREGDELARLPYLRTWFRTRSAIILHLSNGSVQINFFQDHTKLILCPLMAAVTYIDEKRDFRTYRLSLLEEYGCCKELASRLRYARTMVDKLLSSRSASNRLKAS
Protocol: For Plk1 pull-down assays with immobilized peptides, we used total lysates prepared from mitotic HeLa cells. […] Cells treated with 200 ng/ml of nocodazole for 16 h were lysed in TBSN buffer {20 mM Tris-Cl (pH8.0), 150 mM NaCl, 0.5% NP-40, 5 mM EGTA, 1.5 mM EDTA, 0.5 mM Na3VO4, 20 mM p-nitrophenyl phosphate, and protease inhibitor cocktail (Roche, Nutley, N.J.)}, and then clarified by centrifugation at 15,000×g for 20 min at 4° C. The resulting lysates were incubated with bead-immobilized peptides (40 μM per binding) for 2 h, precipitated, washed, and then boiled in sodium dodecyl sulfate (SDS) sample buffer to elute the associated proteins. Samples were separated by 10% SDS-polyacrylamide gel electrophoresis (PAGE), and then either stained with silver or transferred to PVDF membrane for immunoblotting analysis with anti-Plk1 antibody using the enhanced chemiluminescence (ECL) detection system (Pierce). […]

[1] = biological target: Plk1 PBD-p-Cdc25C interaction (Homo sapiens, UniProt P53350); experiment: Competition of the PBD-p-Cdc25C interaction in mitotic HeLa lysates; format: binding; details: GST-PBD
Sequence of Plk1 PBD-p-Cdc25C interaction (P53350 326-603 limits assumed): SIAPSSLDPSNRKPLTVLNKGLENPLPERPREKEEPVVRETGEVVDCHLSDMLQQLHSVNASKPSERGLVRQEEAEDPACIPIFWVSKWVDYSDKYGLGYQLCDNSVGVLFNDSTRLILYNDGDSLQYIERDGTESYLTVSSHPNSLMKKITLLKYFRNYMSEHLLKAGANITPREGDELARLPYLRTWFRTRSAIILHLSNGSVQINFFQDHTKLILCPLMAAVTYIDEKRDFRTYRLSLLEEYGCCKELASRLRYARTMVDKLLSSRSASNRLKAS
Protocol: For p-Cdc25C pull-down assays, either bead-bound GST-PBD or the corresponding GST-PBD(H538A K540M) mutant was incubated with mitotic HeLa lysates in TBSN buffer supplemented with 2 mM DTT. To test the ability of the indicated peptides to compete the PBD-p-Cdc25C interaction, lysates were pre-incubated with GST-PBD for 1.5 h prior to the addition of the indicated peptides. Lysates were then incubated for additional 1.5 h, washed in the binding buffer, and then analyzed. For competition of the interaction between p-Cdc25C and endogenous Plk1, mitotic lysates were prepared in TBSN and incubated with the indicated peptides for 1 h before subjecting to immunoprecipitation with anti-Plk1 antibody.

Plk2 PBD = biological target: T2, Plk2 PBD (Homo sapiens, UniProt Q9NYY3); experiment: Isothermal titration calorimetry with recombinant Plk2 PBD
T2 sequence (Q9NYY3 373-685): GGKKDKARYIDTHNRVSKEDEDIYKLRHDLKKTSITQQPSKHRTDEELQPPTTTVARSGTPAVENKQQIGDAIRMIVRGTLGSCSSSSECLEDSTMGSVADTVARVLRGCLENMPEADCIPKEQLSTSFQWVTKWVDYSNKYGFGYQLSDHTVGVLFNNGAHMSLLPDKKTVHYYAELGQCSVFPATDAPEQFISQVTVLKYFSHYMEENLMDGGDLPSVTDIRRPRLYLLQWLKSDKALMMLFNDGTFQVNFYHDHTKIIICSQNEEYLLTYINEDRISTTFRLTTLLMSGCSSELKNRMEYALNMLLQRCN

Plk2 = biological target: T3, Plk2 (Mus musculus, UniProt P53351, K108M); experiment: Peptide pull-down assay with bead-immobilized peptides, Plk2; format: binding
T3 construct: expressed in transfected cells
T3 sequence (P53351 whole entry K108M): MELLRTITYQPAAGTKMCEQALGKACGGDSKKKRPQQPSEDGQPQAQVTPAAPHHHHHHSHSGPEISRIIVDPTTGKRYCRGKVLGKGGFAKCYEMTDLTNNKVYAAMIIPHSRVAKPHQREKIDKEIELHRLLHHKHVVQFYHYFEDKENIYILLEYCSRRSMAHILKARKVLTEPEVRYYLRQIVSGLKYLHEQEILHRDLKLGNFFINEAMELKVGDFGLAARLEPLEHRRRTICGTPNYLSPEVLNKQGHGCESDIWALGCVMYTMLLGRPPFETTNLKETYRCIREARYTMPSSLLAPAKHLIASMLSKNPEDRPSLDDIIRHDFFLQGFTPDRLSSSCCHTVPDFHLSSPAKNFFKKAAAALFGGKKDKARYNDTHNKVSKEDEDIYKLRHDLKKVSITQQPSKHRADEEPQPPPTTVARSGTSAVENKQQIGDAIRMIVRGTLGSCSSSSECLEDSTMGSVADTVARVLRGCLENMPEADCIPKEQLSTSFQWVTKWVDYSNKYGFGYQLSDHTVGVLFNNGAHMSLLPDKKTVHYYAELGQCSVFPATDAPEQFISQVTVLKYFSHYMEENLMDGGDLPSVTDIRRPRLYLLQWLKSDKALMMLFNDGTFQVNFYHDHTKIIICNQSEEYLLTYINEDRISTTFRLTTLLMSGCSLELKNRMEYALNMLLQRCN
Protocol: After incubating the cell lysates prepared in TBSN buffer {20 mM Tris-Cl (pH8.0), 150 mM NaCl, 0.5% Np-40, 5 mM EGTA, 1.5 mM EDTA, 20 mM p-nitrophenylphosphate and protease inhibitor cocktail (Roche, Nutley, N.J.)} with the bead-immobilized ligands for 2 h at 4° C., the ligand-associating proteins were precipitated, washed, boiled in sodium dodecyl sulfate (SDS) sample buffer, separated by 8% SDS-polyacrylamide gel electrophoresis (PAGE), and then subjected to immunoblotting analysis with anti-Flag antibody and the enhanced chemilunimescence (ECL) detection system (Pierce). The same membrane was also stained with Coomassies (CBB). Signal intensities were quantified using Image J program.
To investigate the binding specificity of p-T78 peptides to various Plks, Flag-Plk1 (K82M), Flag-Plk2(K108M)3 or Flag-Plk3(K52R) (a gift of Wei Dai, New York University School of Medicine, NY) construct was first transfected into HeLa cells. Cellular lysates were prepared as above, mixed, and then incubated in TBSN buffer with the immobilized peptides indicated.

Plk3 = biological target: T4, Plk3 (Homo sapiens, UniProt Q9H4B4, K91R); experiment: Peptide pull-down assay with bead-immobilized peptides, Plk3; format: binding
T4 construct: expressed in transfected cells; construct a gift of Wei Dai
T4 sequence (Q9H4B4 40-646 K91R limits assumed): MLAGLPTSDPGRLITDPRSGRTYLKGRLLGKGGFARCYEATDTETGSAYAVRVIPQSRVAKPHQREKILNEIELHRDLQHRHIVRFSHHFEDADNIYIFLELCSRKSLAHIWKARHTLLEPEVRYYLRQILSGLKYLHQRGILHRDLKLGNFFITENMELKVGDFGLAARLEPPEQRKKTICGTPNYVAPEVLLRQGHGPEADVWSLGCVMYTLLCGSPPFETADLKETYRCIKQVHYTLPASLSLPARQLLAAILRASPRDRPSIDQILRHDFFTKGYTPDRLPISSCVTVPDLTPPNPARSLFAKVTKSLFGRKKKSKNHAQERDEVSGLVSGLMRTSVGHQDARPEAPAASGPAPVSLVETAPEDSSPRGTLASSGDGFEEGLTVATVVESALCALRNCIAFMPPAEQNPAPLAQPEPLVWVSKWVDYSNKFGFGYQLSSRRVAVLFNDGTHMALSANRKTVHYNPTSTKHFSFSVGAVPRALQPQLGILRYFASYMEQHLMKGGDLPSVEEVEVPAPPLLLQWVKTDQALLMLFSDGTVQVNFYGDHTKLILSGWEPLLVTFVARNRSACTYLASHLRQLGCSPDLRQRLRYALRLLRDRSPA

HeLa cells [2] = experiment: Direct treatment of cultured HeLa cells (mitotic arrest, apoptotic cell death, Plk1 localization); format: cell-based; details: 200 μM
HeLa cells [3] = details: Yun et al. 2009; cited from earlier work
[4] = Toxicity in cell-based experiments
Flag-Plk1 (K82M) = Flag-Plk1 (K82M) (UniProt P53350 1-603); experiment: pull-down with bead-immobilized peptide, mitotic HeLa lysate
Sequence of Flag-Plk1 (K82M) (P53350 whole entry K82M): as the sequence (P53350 whole entry) above, with K82M counted along it

HA-EGFP-Plk1 [5] = biological target: T5, HA-EGFP-Plk1 (UniProt P53350 1-603); experiment: competition ELISA, HA-EGFP-Plk1 lysate on immobilized biotin p-T78 9-mer
T5 construct: In lysates of mitotic 293A cells infected with adenovirus expressing HA-EGFP-Plk1
T5 sequence (P53350 whole entry): as the sequence (P53350 whole entry) above

HA-EGFP-Plk1 [6] = biological target: T5, HA-EGFP-Plk1; experiment: ELISA-based PBD-binding inhibition assay: peptide as competitor of the immobilized biotinylated 9-mer p-T78 peptide for HA-EGFP-Plk1 in mitotic 293A cell lysate; bound Plk1 detected with anti-HA, OD 450 nm
[7] = biological target: T6, recombinant Plk2 PBD (residues 373 to 685) (human) (UniProt Q9NYY3); experiment: ITC
T6 sequence (looked up): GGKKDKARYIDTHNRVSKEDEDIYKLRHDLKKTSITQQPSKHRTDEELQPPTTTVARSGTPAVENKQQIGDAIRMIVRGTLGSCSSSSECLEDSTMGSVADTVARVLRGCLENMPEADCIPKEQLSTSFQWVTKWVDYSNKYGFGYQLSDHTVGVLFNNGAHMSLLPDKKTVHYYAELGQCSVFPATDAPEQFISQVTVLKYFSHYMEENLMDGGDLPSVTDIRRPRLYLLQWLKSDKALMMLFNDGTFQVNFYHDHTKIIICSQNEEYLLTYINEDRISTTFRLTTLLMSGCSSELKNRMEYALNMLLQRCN

Flag-Plk2 (K108M) [8] = biological target: Flag-Plk2 (K108M) (UniProt Q9NYY3); experiment: assay not stated at this place (peptide pull-down by paragraph 548)
[9] = biological target: T6, recombinant Plk2 PBD (residues 373 to 685) (human); experiment: ITC; saturable binding not observed
Flag-Plk2 (K108M) [10] = biological target: Flag-Plk2 (K108M) (UniProt Q9NYY3); experiment: pull-down with bead-immobilized peptide, mixed Flag-Plk1/2/3 lysates (HeLa)

interaction with Plk2 PBD by calorimetry, in words (Plk2 PBD): virtually no interactions with Plk2
Molecule: CC(=O)N[C@@H](CC(C)C)C(=O)N[C@@H](Cc1c[nH]cn1)C(=O)N[C@@H](CO)C(=O)N[C@H](C(=O)N[C@@H](C)C(N)=O)[C@@H](C)OP(=O)(O)O [LHSpTA]
Plk1 PBD-binding affinity / inhibition, in words (Plk1 PBD): inhibited the PBD at a moderately reduced level
Plk1 binding / precipitation in pull-down, in words (Plk1): bound to Plk1 almost as efficiently as PLHSpT
disruption of the pre-formed PBD-p-Cdc25C complex [1]: disrupted the pre-formed PBD-p-Cdc25C complex nearly as efficiently as PLHSpT

Molecule: COCCOCCOCCOCCOCCOCCOCCOCCC(=O)N1CCC[C@H]1C(=O)N[C@@H](CC(C)C)C(=O)N[C@@H](Cc1cncn1CCCCCCCCc1ccccc1)C(=O)N[C@@H](CO)C(=O)N[C@H](C(N)=O)[C@@H](C)CP(=O)(O)O [PEG-4j*]
Plk2 binding / precipitation in pull-down, in words (Plk2): failed to significantly interact
Plk3 binding / precipitation in pull-down, in words (Plk3): failed to significantly interact
Plk1 delocalization and misaligned chromosomes (HeLa cells [2]): drastic Plk1 delocalization from centrosomes and kinetochores, and severe misaligned chromosomes
mitotic arrest / apoptotic cell death / cellular response (HeLa cells [2]): effectively induced mitotic arrest and apoptotic cell death

Molecule: CC(=O)N1CCC[C@H]1C(=O)N[C@@H](CC(C)C)C(=O)N[C@@H](Cc1c[nH]cn1)C(=O)N[C@@H](CO)C(=O)N[C@H](C(N)=O)[C@@H](C)OP(=O)(O)O [compound 1, PLHSpT]
mitotic arrest / apoptotic cell death / cellular response (HeLa cells [2]): failed to elicit a detectable cellular response; also recorded: failed to generate a detectable level of cellular effect
Plk1 localization and apoptotic cell death after microinjection (HeLa cells [3]): interferes with proper subcellular localization of Plk1 and induces apoptotic cell death

Molecule: CC(=O)N1CCC[C@H]1C(=O)N[C@@H](CC(C)C)C(=O)N[C@@H](Cc1c[nH]cn1)C(=O)N[C@@H](CO)C(=O)N[C@H](C(=O)N[C@@H](C)C(N)=O)[C@@H](C)C(F)(F)P(=O)(O)O [compound 25, PLHS-F2Pmab-A] (Ac-PLHS[X1]A-NH2)
toxicity [4]: significant toxicity

binding result (Flag-Plk1 (K82M)): no binding
fold higher molar concentration without inhibition (HA-EGFP-Plk1 [5]): > 1000 fold
binding result (HA-EGFP-Plk1 [6]): no binding (tested: 300 µM)
Molecule: PLHA[Abu(3R-Me,4-PO3H2)] (also called 24; Pmab(S77A)) [PLHA-Pmab]

initial heats of interaction [7]: -1.1 kcal/mol
fold increase of Plk2 binding (Flag-Plk2 (K108M) [8]): 24 fold
Molecule: PLQS[pT] [PLQSpT]

initial heats of interaction [9]: -1.68 kcal/mol
efficiency of precipitation relative to Plk1 (Flag-Plk2 (K108M) [10]): 27%
Molecule: MQS[pT]PL [MQSpTPL]
